Experimental data from US11180474B2 (BRISTOL-MYERS SQUIBB COMPANY, priority 2016, dated 2021).
pIC50: −log10 of the molar value.

What follows are molecules tested against T1, human TLR8 (Homo sapiens, UniProt Q9NR97) (assay: TLR8 inhibition reporter assay (HEK-Blue cells, SEAP reporter, R848 stimulation)). Conditions: HEK-Blue cells overexpressing human TLR8, R848 15.9 μM.
T1 construct: host or cells: HEK-Blue cells
T1 sequence (Q9NR97 27-1041): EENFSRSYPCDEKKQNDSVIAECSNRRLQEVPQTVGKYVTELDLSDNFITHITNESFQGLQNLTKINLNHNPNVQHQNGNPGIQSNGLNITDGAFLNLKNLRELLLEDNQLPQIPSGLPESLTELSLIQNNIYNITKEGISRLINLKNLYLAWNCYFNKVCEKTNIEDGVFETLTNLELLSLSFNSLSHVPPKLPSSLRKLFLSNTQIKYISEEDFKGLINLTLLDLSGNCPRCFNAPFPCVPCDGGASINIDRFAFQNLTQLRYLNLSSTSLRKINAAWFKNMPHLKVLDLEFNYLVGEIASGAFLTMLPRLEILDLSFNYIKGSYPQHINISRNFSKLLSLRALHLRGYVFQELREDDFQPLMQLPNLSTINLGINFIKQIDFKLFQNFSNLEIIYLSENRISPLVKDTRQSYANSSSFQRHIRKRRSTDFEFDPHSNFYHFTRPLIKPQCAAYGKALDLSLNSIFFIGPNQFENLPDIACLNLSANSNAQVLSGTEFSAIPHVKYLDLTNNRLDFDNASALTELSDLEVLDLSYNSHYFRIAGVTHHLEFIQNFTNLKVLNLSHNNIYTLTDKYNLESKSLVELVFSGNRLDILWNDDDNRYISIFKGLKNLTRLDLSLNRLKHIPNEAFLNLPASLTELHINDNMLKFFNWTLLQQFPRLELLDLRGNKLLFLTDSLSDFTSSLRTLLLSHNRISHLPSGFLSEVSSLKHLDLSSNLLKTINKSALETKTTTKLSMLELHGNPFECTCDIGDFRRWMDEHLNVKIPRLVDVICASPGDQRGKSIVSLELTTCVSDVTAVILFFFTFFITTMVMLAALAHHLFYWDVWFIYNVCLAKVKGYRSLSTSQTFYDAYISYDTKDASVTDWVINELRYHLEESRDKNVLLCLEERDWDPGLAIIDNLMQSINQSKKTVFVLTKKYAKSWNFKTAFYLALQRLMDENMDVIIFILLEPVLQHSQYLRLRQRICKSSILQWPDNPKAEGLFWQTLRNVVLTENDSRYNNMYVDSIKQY
Format: cell-based
Summary of the method: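 Dose-response testing from 0.05 nM to 50 μM final was done on reporter cells for 22 hours at 37° C. Secreted SEAP was then detected, and inhibition was calculated as percent reduction of the agonist-plus-DMSO signal compared with wells given a known inhibitor.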

Structure (SMILES)	pIC50
COc1ccc(-c2[nH]c3ccc(C4CCN(CC(=O)NCCN5CCCC5)CC4)cc3c2CC(F)(F)F)cc1OC [Example 375, 2-(4-(2-(3,4-dimethoxyphenyl)-3-(2,2,2-trifluoroethyl)-1H-indol-5-yl)piperidin-1-yl)-N-(2-(pyrrolidin-1-yl)ethyl)acetamide]	6.93
COc1ccc(-c2[nH]c3ccc(C4CCN(CC(=O)NCCCN5CCCC5=O)CC4)cc3c2CC(F)(F)F)cc1OC [Example 376, 2-(4-(2-(3,4-dimethoxyphenyl)-3-(2,2,2-trifluoroethyl)-1H-indol-5-yl)piperidin-1-yl)-N-(3-(2-oxopyrrolidin-1-yl)propyl)acetamide]	7.19
CCC(C)NC(=O)CN1CCC(c2ccc3[nH]c(-c4ccc(OC)c(OC)c4)c(CC(F)(F)F)c3c2)CC1 (stereo not drawn) [Example 377, N-(sec-butyl)-2-(4-(2-(3,4-dimethoxyphenyl)-3-(2,2,2-trifluoroethyl)-1H-indol-5-yl)piperidin-1-yl)acetamide]	6.69
CCC(CC)NC(=O)CN1CCC(c2ccc3[nH]c(-c4ccc(OC)c(OC)c4)c(CC(F)(F)F)c3c2)CC1 [Example 378, 2-(4-(2-(3,4-dimethoxyphenyl)-3-(2,2,2-trifluoroethyl)-1H-indol-5-yl)piperidin-1-yl)-N-(pentan-3-yl)acetamide]	6.35
COc1ccc(-c2[nH]c3ccc(C4CCN(CC(=O)NCCN(C)C)CC4)cc3c2CC(F)(F)F)cc1OC [Example 380, 2-(4-(2-(3,4-dimethoxyphenyl)-3-(2,2,2-trifluoroethyl)-1H-indol-5-yl)piperidin-1-yl)-N-(2-(dimethylamino)ethyl)acetamide]	7.26
COc1ccc(-c2[nH]c3ccc(C4CCN(CC(=O)NCC#N)CC4)cc3c2CC(F)(F)F)cc1OC [Example 381, N-(cyanomethyl)-2-(4-(2-(3,4-dimethoxyphenyl)-3-(2,2,2-trifluoroethyl)-1H-indol-5-yl)piperidin-1-yl)acetamide]	7.12
COc1ccc(-c2[nH]c3ccc(C4CCN(CC(=O)NCCCN(C)C)CC4)cc3c2CC(F)(F)F)cc1OC [Example 382, 2-(4-(2-(3,4-dimethoxyphenyl)-3-(2,2,2-trifluoroethyl)-1H-indol-5-yl)piperidin-1-yl)-N-(3-(dimethylamino)propyl)acetamide]	7.21
COc1ccc(-c2[nH]c3ccc(C4CCN(CC(=O)NCCc5ccc(S(N)(=O)=O)cc5)CC4)cc3c2CC(F)(F)F)cc1OC [Example 384, 2-(4-(2-(3,4-dimethoxyphenyl)-3-(2,2,2-trifluoroethyl)-1H-indol-5-yl)piperidin-1-yl)-N-(4-sulfamoylphenethyl)acetamide]	7.09
COc1ccc(-c2[nH]c3ccc(C4CCN(CC(=O)NCCS(=O)(=O)O)CC4)cc3c2CC(F)(F)F)cc1OC [Example 386, 2-(2-(4-(2-(3,4-dimethoxyphenyl)-3-(2,2,2-trifluoroethyl)-1H-indol-5-yl)piperidin-1-yl)acetamido)ethane-1-sulfonic acid]	6.23
COc1ccc(-c2[nH]c3ccc(C4CCN(CC(=O)Nc5cc(C(C)(C)C)[nH]n5)CC4)cc3c2CC(F)(F)F)cc1OC [Example 387, N-(5-(tert-butyl)-1H-pyrazol-3-yl)-2-(4-(2-(3,4-dimethoxyphenyl)-3-(2,2,2-trifluoroethyl)-1H-indol-5-yl)piperidin-1-yl)acetamide]	6.23
CCN(CC)C(=O)C1CCCN(CC(=O)N2CCC(c3ccc4[nH]c(-c5ccc(OC)c(OC)c5)c(C5CCOCC5)c4c3)CC2)C1 (stereo not drawn) [Example 391, 1-(2-(4-(2-(3,4-dimethoxyphenyl)-3-(tetrahydro-2H-pyran-4-yl)-1H-indol-5-yl)piperidin-1-yl)-2-oxoethyl)-N,N-diethylpiperidine-3-carboxamide]	6.45
CCN(CC)C(=O)C1CCCN(CC(=O)N2CCC(c3ccc4[nH]c(-c5ccc(OC)c(OC)c5)c(C5CCOCC5)c4c3)CC2)C1 (stereo not drawn) [Example 392, 1-(2-(4-(2-(3,4-dimethoxyphenyl)-3-(tetrahydro-2H-pyran-4-yl)-1H-indol-5-yl)piperidin-1-yl)-2-oxoethyl)-N,N-diethylpiperidine-3-carboxamide]	6.71

Continued by rising pIC50, values first:

pIC50	Structure (SMILES)
7.26	COc1ccc(-c2[nH]c3ccc(C4CCN(CC(=O)N(C)C5CCN(C)C5)CC4)cc3c2CC(F)(F)F)cc1OC (stereo not drawn) [Example 370, 2-(4-(2-(3,4-dimethoxyphenyl)-3-(2,2,2-trifluoroethyl)-1H-indol-5-yl)piperidin-1-yl)-N-methyl-N-(1-methylpyrrolidin-3-yl)acetamide]
7.28	COc1ccc(-c2[nH]c3ccc(C4CCN(CC(=O)N5CCC[C@@H]5CO)CC4)cc3c2CC(F)(F)F)cc1OC [Example 371, (R)-2-(4-(2-(3,4-dimethoxyphenyl)-3-(2,2,2-trifluoroethyl)-1H-indol-5-yl)piperidin-1-yl)-1-(2-(hydroxymethyl)pyrrolidin-1-yl)ethan-1-one]
7.36	COc1ccc(-c2[nH]c3ccc(C4CCN(CC(=O)N5CC[C@@H](N(C)C)C5)CC4)cc3c2CC(F)(F)F)cc1OC [Example 373, (R)-2-(4-(2-(3,4-dimethoxyphenyl)-3-(2,2,2-trifluoroethyl)-1H-indol-5-yl)piperidin-1-yl)-1-(3-(dimethylamino)pyrrolidin-1-yl)ethan-1-one]
7.39	COc1ccc(-c2[nH]c3ccc(C4CCN(CC(=O)NCC(N)=O)CC4)cc3c2CC(F)(F)F)cc1OC [Example 385, N-(2-amino-2-oxoethyl)-2-(4-(2-(3,4-dimethoxyphenyl)-3-(2,2,2-trifluoroethyl)-1H-indol-5-yl)piperidin-1-yl)acetamide]
7.40	COc1ccc(-c2[nH]c3ccc(C4CCN(CC(=O)NCCCCN5CCCC5)CC4)cc3c2CC(F)(F)F)cc1OC [Example 388, 2-(4-(2-(3,4-dimethoxyphenyl)-3-(2,2,2-trifluoroethyl)-1H-indol-5-yl)piperidin-1-yl)-N-(4-(pyrrolidin-1-yl)butyl)acetamide]
7.41	COc1ccc(-c2[nH]c3ccc(C4CCN(CC(=O)NCCNC(C)=O)CC4)cc3c2CC(F)(F)F)cc1OC [Example 379, N-(2-acetamidoethyl)-2-(4-(2-(3,4-dimethoxyphenyl)-3-(2,2,2-trifluoroethyl)-1H-indol-5-yl)piperidin-1-yl)acetamide]
7.46	COc1ccc(-c2[nH]c3ccc(C4CCN(CC(=O)N5CC[C@H](N(C)C)C5)CC4)cc3c2CC(F)(F)F)cc1OC [Example 374, (S)-2-(4-(2-(3,4-dimethoxyphenyl)-3-(2,2,2-trifluoroethyl)-1H-indol-5-yl)piperidin-1-yl)-1-(3-(dimethylamino)pyrrolidin-1-yl) ethan-1-one]
7.52	COc1ccc(-c2[nH]c3ccc(C4CCN(CC(=O)NCCCn5ccnc5)CC4)cc3c2CC(F)(F)F)cc1OC [Example 383, N-(3-(1H-imidazol-1-yl)propyl)-2-(4-(2-(3,4-dimethoxyphenyl)-3-(2,2,2-trifluoroethyl)-1H-indol-5-yl)piperidin-1-yl)acetamide]
7.60	CCN(CCN(C)C)C(=O)CN1CCC(c2ccc3[nH]c(-c4ccc(OC)c(OC)c4)c(CC(F)(F)F)c3c2)CC1 [Example 372, 2-(4-(2-(3,4-dimethoxyphenyl)-3-(2,2,2-trifluoroethyl)-1H-indol-5-yl)piperidin-1-yl)-N-(2-(dimethylamino)ethyl)-N-ethylacetamide]
